| Compound | melting point |
| --- | --- |
| O=C(Nc1cccc2ccccc12)c1ccn2c1CSC2c1cccnc1 (centres undefined) | 136 °C |
| N#Cc1cc(N)ccc1N1CCC(c2ccccc2)CC1 | 158 to 162 °C |
| OCC(O)CSSc1nc2ccccc2s1 (centres undefined) | 115 to 120 °C |
| CCCN1CCN(c2cccc3c2C[C@H](NC(C)=O)CC3)CC1 | 139 to 140 °C |
| CC(C)C(C)CCC(C)C1CCC2C3CCC4CCCCC4(C)C3CCC12C (centres undefined) | 136 to 137 °C |
| O=S(=O)(c1ccccc1)n1ncc2c(OCCCl)cccc21 | 102 to 104 °C |
| CONC(=NCCSCc1[nH]cnc1C)NC#N | 155 to 156 °C |
| O=C(Oc1ccccc1)C(=C1NCCCS1)[N+](=O)[O-] | 100 to 102 °C |
| O=C(Nc1cccc(NC(=O)C(F)(F)C(F)(F)F)c1)Nc1ccc(Cl)c(Cl)c1 | 195 to 197 °C |
| Cc1ccc(S(=O)(=O)N2C(=O)c3cc4c(cc3[C@H]3[C@@H](C=O)[C@H](O[Si](C)(C)C(C)(C)C)[C@H]5OC(C)(C)O[C@H]5[C@@H]32)OCO4)cc1 | > 200 °C |
| O=C(c1cnc2ccccc2c1)C1CCN(C(=O)c2ccccc2)CC1 | 170 °C |
| COc1cc2c(Nc3ccc(Sc4nccn4C)c(Cl)c3)c(C#N)cnc2cc1N1CCC(N2CCCCC2)CC1 | 221 to 223 °C |
| Cc1cn2nc(Cl)cc(C)c2n1 | 109 to 110 °C |
| COc1ccc(N2C(=O)N(c3cccc(C(N)=O)c3)c3nc(Nc4cccc(CCN(C)C)c4)ncc3C2C)cc1 (centres undefined) | 215 to 230 °C |
| CNC(=O)C(NC(=O)c1cn(C)nc1C(F)(F)F)C(/C=C/c1ccccc1)c1ccccc1 (centres undefined) | 192 to 194 °C |
| CCc1nc(C(=O)c2ccc(Cl)cc2Cl)c(C=O)n1C(CC)CC | 85 to 86 °C |
| Cc1nnc(-c2cc(NCc3c(C)cccc3C)c3nc(C)n(C)c3c2)o1 | 256 to 257 °C |
| O=[N+]([O-])c1cc2nc(O)c(O)nc2c2[nH]ncc12 | > 300 °C |
| CC(C)c1cccc(C(C)C)c1NC(=O)[C@H](C)NC(c1ccccc1)c1ccccc1 | 134 to 138 °C |
| O=C(CN1CCN(C(c2ccccc2)c2ccccc2)CC1)Nc1ccc2ncnn2n1 | 203 to 204 °C |
| CN1C(=O)C(c2ccc(OC(F)(F)F)cc2)(C23CC4CC(CC(C4)C2)C3)N=C1N (centres undefined) | 125 °C |
| CCCCCCCCCCCCP(=O)(O)CCCN | 175 to 177 °C |
| COC(=O)N1CCc2onc(OC)c2C1 | 58 to 60 °C |
| COc1ccccc1OC1(Cl)C=NC(N2CCOCC2)=NC1Cl (centres undefined) | 180 °C |
| CC(C)(C)OC(=O)N1CCC(n2c(=O)[nH]c3ccccc32)CC1 | 161 to 163 °C |
| C=CC[C@H]1C[C@@](OS(C)(=O)=O)(C(=O)OC)C[C@@H](OC(=O)c2ccccc2)[C@@H]1O | 46 to 47 °C |
| Cc1ccc(-c2nc(CCl)co2)s1 | 84 to 85 °C |

| Compound | melting point |
| --- | --- |
| COc1ccc(CN(CC(=O)O)c2nc(NC(=O)Nc3ccccc3OC)nc(Nc3ccccc3-c3ccccc3)n2)cc1 | 147 to 149 °C |
| CNC(=O)ON=C(C)CSC(F)(F)F | 56 to 58 °C |
| CCCCCCCNC(=O)Nc1ccc(OC)cc1C(=O)NCC1CCN(C(c2ccccc2)c2ccccc2)CC1 | 189 to 191 °C |
| FC(F)c1ccc2c(c1)C(Cc1ccncc1)(Cc1ccncc1)c1ccccc1-2 | > 300 °C |
| Fc1c(F)c(F)c(-c2c3ccccc3c(-c3c(F)c(F)c(F)c(F)c3F)c3ccccc23)c(F)c1F | 337 to 338 °C |
| COCOC1CCC2(C)C(=CCC3C2CCC2(C)C(CO)CCC32)C1 (centres undefined) | 102 to 105 °C |
| N#Cc1ccc(C(=C2CCCCC2)c2nc[nH]n2)cc1 | 92 to 93 °C |
| COC(=O)c1cnn2c(O)cc(C(F)(F)F)nc12 | 216 to 217 °C |
| O=C(c1ccccc1)n1c2c(c3ccccc31)CC(C(=O)O)(C(=O)O)CC2 | 160 °C |
| N#CC1=C(C#N)SC(c2ccccc2)CS1 (centres undefined) | 122 to 124 °C |
| CCCCCCCCCCCCCCCCCC(=O)OCCCCCCCCCCCCCC | 40 °C |
| Fc1ccc(C(c2ccc(F)cc2)N2CCN(CC=C3CCc4ccccc43)CC2)cc1 | 138 to 142 °C |
| O=C(Nc1cccc(SC(F)(F)F)c1)c1ccc2ccccc2c1O | 154 °C |
| C=CCN1C2CCC1C1CCC2N1C(c1ccc(C(=O)N2CCCCC2)cc1)c1cccc(OC)c1 (centres undefined) | 134 to 136 °C |
| CC(=O)CC(=O)N[C@H]1CC(=O)OC1=O | 132 to 135 °C |
| CCCCCCCCCCN(CCC12CC3CC(CC(C3)C1)C2)C(=O)NCCCc1ccncc1 | 75 to 76 °C |
| O=CN1C(=O)[C@H]2N=C(Cc3ccccc3)O[C@H]21 | 90 to 92 °C |
| O=C(O)c1ccc(NCC2CCCCCCC2)cc1 | 160 to 162 °C |
| CCOc1ccc(C(OC2CCN(CCCCCC(=O)O)CC2)c2ccccc2)cc1 (centres undefined) | 110 to 112 °C |
| CCCC[C@H](CN(C=O)OCc1ccccc1)C(=O)N1CCC[C@H]1C(=O)Nc1ccc(F)cn1 | 98 °C |
| COCC(=O)C(=NNc1ccc(I)cc1F)C(=O)OC | 141 to 146 °C |
| ClCCCCCOc1ccc(C2=C(c3ccccc3)CCCc3ccccc32)cc1 | 118 to 120 °C |
| C[C@@H]1CCNC[C@@H]1N(C)c1ncnc2[nH]ccc12 | 158 °C |
| Cc1ccc(Cl)cc1NS(=O)(=O)c1cc(S(=O)(=O)Nc2cc(Cl)ccc2C)c2ccccc2c1 | 125 to 127 °C |
| C=Cc1nc(Cl)nc(Cl)c1OC | 60 to 61 °C |
| Cc1cc(C2=NN(C(N)=S)[C@H](C)Cc3cc4c(cc32)OCO4)ccc1[N+](=O)[O-] | 123 to 125 °C |

Results, then the compound that gave them:

| melting point | Compound |
| --- | --- |
| 121 to 122 °C | COC(=O)c1cc(C=O)ccc1OCc1nc(-c2ccco2)oc1C |
| 114 to 115 °C | COc1ccc(-c2cc(SC(F)(F)F)[nH]c2-c2ccc(OC)cc2)cc1 |
| 123 to 125 °C | Cc1cc(F)ccc1-c1c(O)c(C)c(-c2ccccn2)oc1=O |
| 201 to 208 °C | Cc1[nH]c(=O)ccc1-c1ccccc1 |
| 235 to 240 °C | O=C1CCn2cc(C(=O)NCc3ccc(Cl)cc3)c(=O)c3cc(CN4CCOCC4)cc(c32)N1 |
| 223 to 224 °C | COc1cc(OCCOc2ccccc2)cc2nc(-c3cc(C)nc(C)c3)[nH]c(=O)c12 |
| 160 to 162 °C | CCOC(=O)c1cc(=O)cc(-c2ccc([N+](=O)[O-])cc2)o1 |
| 126 to 130 °C | CCN1CCN(Cc2ccc(-c3cc4ncc(C#N)c(Nc5cc(OC)c(Cl)cc5Cl)c4cc3OC)cc2)CC1 |
| 138 to 140 °C | Clc1ccc(C2=NCCc3c2ccc2ccccc32)cc1 |
| 210 °C | O=[N+]([O-])c1ccc(/C=C/c2ccc(O)cc2)cc1 |
| 73 to 74 °C | COC(=O)c1ccccc1COc1ccccc1Br |
| 152 °C | O=C1CCC(c2ccc(N3CC(CO)OC3=O)cc2)CC1 (racemic) |
| 144 to 146 °C | O=[N+]([O-])c1cc([N+](=O)[O-])c(Nc2cccc3c2OC(F)(F)O3)c(C(F)(F)F)c1 |
| 158 to 159 °C | COc1ccc(C(=O)c2ccc(OCC(=O)O)c(Cl)c2Cl)cc1 |
| 95 to 96 °C | CC(=O)c1ccc(CCCOc2c(C)cc(N3CN=C(C(F)F)O3)cc2C)nn1 |
| 50 to 70 °C | CC(C)(C)SCc1c(-c2ccc(S(C)(=O)=O)cc2)cnn(-c2ccc(F)cc2)c1=O |
| 139 to 141 °C | Oc1ccc(-c2nc3cc(O)cc(Br)c3o2)cc1 |
| 80.1 to 81.5 °C | CCOC(=O)c1ccc(-c2ccc(OCCCCCCCCCCCCOC(C)=O)cc2)cc1 |
| 269 to 271 °C | O=C(O)c1cccc2c1C(=O)c1ccccc1S2(=O)=O |
| 137 to 141 °C | Cc1cc(CO)c2cccc(OCc3ccccc3)c2n1 |
| 219 °C | COC(=O)C1=CCC2=Nc3ccccc3C2=C1C(=O)OC |
| 272 to 274 °C | CN(C)c1ccc(-c2cnc3[nH]cc(C(=O)C4(C)CCCCC4)c3n2)cc1 |
| 150 to 151 °C | COC(=O)c1ccc(Cc2cn(C)c3ccc(C(=O)NCC(C)CC(F)(F)F)cc23)c(OC)c1 (centres undefined) |

| melting point | Compound |
| --- | --- |
| 81 to 84 °C | CN(C(=O)OC(C)(C)C)c1cc(Oc2ccc(-c3nnn[nH]3)cc2)ccc1[N+](=O)[O-] |
| 261 to 263 °C | O=c1cc(-c2ccc([N+](=O)[O-])cc2)oc2ncccc12 |
| 220 to 222 °C | CCOC(=O)c1cc(-c2ccc(C)cc2)n(-c2ccc(S(N)(=O)=O)cc2)n1 |
| 238 to 241 °C | O=C(O)c1ccc(S(=O)(=O)Nc2ccc(F)c(C(F)(F)F)c2)cc1 |
| 68 to 70 °C | CCCc1c(OCCCOc2ccc3c(c2CCC)OC(CCC(=O)OCC)CC3)ccc(C(C)=O)c1O (centres undefined) |
| 209 °C | CC(C)(N)c1ccc(-c2nc(Nc3cc(F)cc(F)c3)ncc2C#N)cc1 |
| 190 to 192 °C | CC(=O)c1cnn(-c2ccnc3cc(Cl)ccc23)c1 |
| 190 to 191 °C | NC(=O)c1c(F)ccc(OCc2nc3ccc(Cl)cc3s2)c1F |
| 170 to 172 °C | CS(=O)(=O)c1ccc(C2=C(c3ccc(F)cc3)C(=O)N(C3CC3)C2)cc1 |
| 200 to 202 °C | CCNc1cc(O)c(C(=O)c2ccccc2C(=O)O)cc1C |
| 132 °C | Cc1cc(C)c(C#N)c(SSc2ccc([N+](=O)[O-])cc2C(Cl)(Cl)Cl)n1 |
| 78 to 87 °C | CCC(CC)C(=C(C#N)c1nc[nH]n1)S(=O)(=O)c1ccc(C)cc1 |
| 105 to 107 °C | CN1CCN(c2nn(C(=O)c3ccccc3)c3ccc(Cl)cc23)CC1 |
| 221 to 222 °C | CCOC(=O)c1ccc(-c2[nH]nc3c2C(=O)c2c(NC(=O)NN4CCC[C@@H]4COC)cccc2-3)s1 |
| 179 to 180 °C | COC1=C(Cl)C(=O)NC1=Nc1ccccc1 |
| 183 to 186 °C | O=C(O)CCCn1sc2ccc([N+](=O)[O-])cc2c1=O |
| 152 to 153 °C | COc1cc(C=CC=O)ccc1OC(C)c1nc(-c2ccccc2)oc1C (centres undefined) |
| 180 to 185 °C | Cn1c(-c2ccc3c(c2)C(C)(C)OC(=O)N3)ccc1[N+](=O)[O-] |
| 84 °C | CCCc1cc(CCCCC(=O)O)ccc1OC |
| > 300 °C | CCNC(=O)C1CC2(NC(=O)NC2=O)c2cc(F)ccc2O1 (centres undefined) |
| > 250 °C | COc1cc([N+](=O)[O-])ccc1S(=O)(=O)n1c(=O)n(-c2ccccc2)c2cc(Cl)ccc21 |
| 124 to 128 °C | CCCc1nc(C)cn1-c1nc(OC)ccc1N |
| 220 °C | Oc1ccc(-c2cnc(-c3ccccc3)[nH]c2=S)cc1O |

— a melting point compilation (Tetko et al.; mined from patent text by program, amines drawn as free bases though some values may be those of a salt)
